Assay results as given in publication PMC11162475, “Rule-based omics mining reveals antimicrobial macrocyclic peptides against drug-resistant clinical isolates” (Nature Communications, 2024).
≈ marks a conversion by molar mass, not a printed value.

Tests used:
MRSA ATCC43300 = experiment: microbe, parasite or virus in culture; format: cell-based, Staphylococcus aureus; details: ATCC43300, 20 h
Experimental: (§1) For MIC determination, Staphylococcus aureus ATCC25923, Bacillus subtilis 168, Micrococcus luteus DSM1790, Enterococcus faecalis OG1RF, Enterococcus faecium MCC2763, Escherichia coli DH5α and Pseudomonas aeruginosa PAO1 were used as indicator strains. Nisin and vancomycin were used as positive controls. A dilution series of massatide A, massatide B, vancomycin (16, 8, 4, 2, 1, 0.5, 0.25, 0.125, 0.0625, 0.0313 μg/mL) and sistertide A1, kebanetide A1, kebanetide A2, nisin (64, 32, 16, 8, 4, 2, 1, 0.5, 0.25, 0.125 μg/mL) were prepared in 96-well plate from 1–10th column. The indicator strains were added to the compound-containing well. The indicator strain culture with no antibiotics was prepared in the 11th column. The 12th column was filled with 200 μL empty MHB medium. The 96-well plate was incubated at 37 °C for 20 h (30 °C for M. luteus and B. subtilis). The OD600 was detected on MULTISKAN Sky (Thermo Scientific) and MIC values were determined. The MIC values of clinical isolates were determined by Sichuan Primed Shines Bio-tech Co., Ltd. (China) following similar protocol. Levofloxacin was used as a positive control.

MRSA ATCC33591 = experiment: microbe, parasite or virus in culture; format: cell-based, Staphylococcus aureus; details: ATCC33591, 20 h
Experimental: as §1

VMSA ATCC700699 = experiment: microbe, parasite or virus in culture; format: cell-based, Staphylococcus aureus; details: ATCC700699, 20 h
Experimental: as §1

VMSA ATCC700788 = experiment: microbe, parasite or virus in culture; format: cell-based, Staphylococcus aureus; details: ATCC700788, 20 h
Experimental: as §1

LRSA 20-1 = experiment: microbe, parasite or virus in culture; format: cell-based, Staphylococcus aureus; details: 20 h
Experimental: as §1

MRSA 15-1 = experiment: microbe, parasite or virus in culture; format: cell-based, Staphylococcus aureus; details: 15-1, 20 h
Experimental: as §1

[1] = Mammalian cytotoxicity, CCK-8 assay; format: cell-based; details: human
Experimental: Bioactivity assay of the crude extract
Protease stability of massatide A
Thermal stability of massatide A […]
and 1% penicillin -streptomycin. […]
and CO 2-controllable incubator with 5% CO 2. All the cell experiments were performed […]
Cell viability was determined by the CCK -8 assay. HeLa and Hek -293T cells were […]
µg/ml. At the end of the fixed incubation period (24 h), cells were washed with PBS to remove excess compound. We added 100 µl fresh medium and 10 µl CCK-8 reagent.
After 2 h incubation at 37°C, absorbance at 450 nm was recorded using a microplate reader. All experiments were performed in triplicate (n=3 independent experiments).
Growth kinetics of S. aureus
Massatide A or B was prepared in a 96-well plate at the concentration of 8×MIC, 4×MIC, 2×MIC, 1×MIC and 0.5×MIC , respectively. The MHB medium with no compound was used as a control. Then, the overnight culture of S. aureus ATCC 25923 cells was added to the medium at 1:1,000. The plate was incubated with shaking in SpectraMax iD3 (MOLECULAR DEVICES) at 30 ℃. OD600 was measured every 30 min for 36 hours. To analyze the lysis, 1mL of S. aureus ATCC 25923 culture (OD600 1.0) was treated with massatide A or vancomycin (10×MIC) for 24h. An untreated sample was used as a negative control.
Time-dependent killing assay
An overnight culture of S. aureus ATCC 25923 cells was diluted at 1:10,000 in MHB medium and incubated at 37 ℃, 200 rpm for 2 hours to reach the early exponential.
Then, massatide A or vancomycin was added to the culture at the concentration of 10×MIC. Bacteria were still cultivated at 37 ℃, 200 rpm. Culture with no antibiotics was used as a negative control. 10 μL aliquots were removed at intervals, centrifuged, and resuspended in 1 ml PBS. Serially diluted (10-fold) suspensions were plated on MHB agar and incubated at 37 ℃ overnight for counting of colony-forming units.
Experiments were performed in triplicate.
Sequential culturing of S. aureus ATCC 25923 was performed in the presence of a subinhibitory concentration of massatide A to observe whether the resistance developed. […]

VREfa ATCC51575 = experiment: microbe, parasite or virus in culture; format: cell-based, Enterococcus faecalis; details: ATCC51575, 20 h
Experimental: as §1

LREfa 20-1 = experiment: microbe, parasite or virus in culture; format: cell-based, Enterococcus faecalis; details: 20 h
Experimental: as §1

[2] = Thermal stability of massatide A
Experimental: Thermal stability of massatide A
A solution of Massatide A (3.2 mg/mL) was prepared in 1.5 mL Eppendorf tube. These
tubes were then incubated at 50 °C and 70 °C in a dry bath for 72 hours. After incubation,
1 μ L samples were taken and diluted with water for UPLC -LRMS analysis. […]

For `C/C=C1\NC(=O)C(N(C)C)C(C)SC[C@@H](C(=O)N[C@H](CC)C(=O)N[C@H](C(=O)N[C@@H](C)C(=O)N[C@H](C)C(=O)N[C@@H](Cc2ccccc2)C(=O)N[C@@H](C)C(=O)NC2C(=O)NCC(=O)N[C@@H](Cc3ccc(O)cc3)C(=O)N[C@@H](Cc3ccccc3)C(=O)N[C@H](C)C(=O)N/C=C\SC2C)C(C)C)NC(=O)[C@@H]2CCCN2C(=O)[C@H](C(C)C)NC1=O` (stereo partly drawn) [Massatide A (1), massatide A], the MIC (MRSA ATCC43300) was 0.25 µg/mL (≈ 0.153 µM), the MIC (MRSA ATCC33591) was 1 µg/mL (≈ 0.612 µM) and the MIC (VMSA ATCC700699) was 4 µg/mL (≈ 2.45 µM). For the same compound, the MIC (VMSA ATCC700788) was 4 µg/mL (≈ 2.45 µM), the MIC (LRSA 20-1) was 0.25 µg/mL (≈ 0.153 µM) and the MIC (MRSA 15-1) was 2 µg/mL (≈ 1.22 µM). For the same compound, the IC50 at 24 h [1] was 136 µg/mL (≈ 83.4 µM), the MIC (VREfa ATCC51575) was 4 µg/mL (≈ 2.45 µM) and the MIC (LREfa 20-1) was 4 µg/mL (≈ 2.45 µM). The “stability under high temperatures” value ([2]; 3.2 mg/mL, 50 °C and 70 °C, dry bath, 72 hours, UPLC-LRMS) was “highly stable”, the “changes in retention time or m/z after incubation” value ([2]; 72 h incubation under 70 ℃, 3.2 mg/mL, UPLC-LRMS) was “No changes” and the “changes in bioactivity after incubation” value ([2]; time-course activity analysis, incubation at 50 ℃ and 70 ℃ up to 72 h) was “no obvious changes”.
